Where two headings read alike, the source gives them in different places. Each block holds one compound with its values, some of them ahead of it. *1 amine or outer side, *2 acyl side, *3 side chain or, on linkers, in order; H or OH if unused. Where a SMILES comes first, the peptide text is derived from it. Side-chain parts run from the residue outwards. [ ]: non-standard residue; d: D form. The star is where a group is joined. γGlu = O=C(O)[C@H](CCC(=O)[*:2])N[*:1]; Stearoyl = CCCCCCCCCCCCCCCCCC(=O)*; Nle = CCCC[C@H](N)C(=O)O; AEEA = NCCOCCOCC(=O)O; Aib = CC(C)(N)C(=O)O
Assays:
[1] = Pharmacokinetics in Goettingen minipigs; format: in vivo, minipig; details: for CL / t1/2 / AUCext / F / AUC / C0 / Vd / Cmax / Tmax: female Göttingen minipig; for CL / t1/2 / AUC / C0 / Vd / Cmax / Tmax: LC-MS; for CL / t1/2 / AUC / C0 / Vd / Cmax: non-compartmental analysis; for AUC / C0 / Vd / Cmax / Tmax: 1 mg/kg; for Vd: read-out: Vss
Procedure: Goettingen minipigs (Ellegaard Göttingen Minipigs A/S, Soroe Landevej 302, DK-4261 Dalmose, Denmark) were dosed with the study peptide at a dose of 1 mg/kg IV and SC routes (0.1 mg/mL). Blood samples were collected from individual animals at the following time points: 0.083, 0.25, 0.5, 2, 4, 6, 8, 24, 48, 72, 96 and 168 h (IV route) and 0.25, 0.5, 2, 4, 6, 8, 24, 48, 72, 96 and 168 h (SC route). All samples, collected into K3-EDTA tubes, were centrifuged and plasma was harvested and stored at − 80 °C until analysis. Three hundred μL of 1% tri-fluoro acetic acid in acetonitrile containing 10 ng/mL irbesartan as internal standard were added to 30 μL of standard, QC and PK study samples to precipitate the plasma proteins. Each sample was vortexed and centrifuged, for 5 min, at 4000 rpm and at 4 °C. Two hundred and fifty microliters of supernatant were collected and evaporated under nitrogen at 37 °C in LoBIND 96 well plates. 150 µL of water/acetonitrile (90/10, v/v) were added to dissolve the evaporates and 10 µL of the extracted plasma samples were injected onto the column. Chromatographic separation was performed on a Thermo Vanquish (Thermo Scientific) chromatography system using a UPLC HSS T3, (50 mm × 2.1 mm I.D., 1.8 μm, Waters Corporation) with a flow rate of 0.600 mL/min at 40 °C and a two-solvent linear gradient system. Solvents A (water) and B (acetonitrile) contained both 0.1% formic acid. […] The Vanquish was coupled to an Orbitrap QExactive™ mass spectrometer (Thermo Scientific) in positive mode. Quantitation was performed in full scan. The optimized source parameters were as follows: ion spray voltage 3.8 kV, sheath gas flow 70 a.u., aux gas flow 10 a.u., aux T 300 °C, capillary T 250 °C, S-lens RF level 60%. Full MS parameters were as follows: mass range 150–2000, AGC target 1 × 10^6, max injection time 250 ms, resolution 70,000 (FWHM @ 200 m/z). Data processing was performed using Xcalibur 3.0 (Thermo Scientific). Ion current of the [M + 5H]5 + of the SA10SC-RLX was extracted with 5 ppm window for quantitation (814.47219 m/z). A calibration curve with 9 standard points was prepared freshly on the day of analysis by spiking appropriate amounts of an intermediate working standard solution into blank rat plasma and ranged from 10 to 4000 ng/mL (2.46–983 nM). Three QC samples, each at four concentration levels from […] to 3200 ng/mL (7.86–786 nM), were used for all analyses. Calibration curves were prepared by plotting the analyte to internal standard peak area ratio versus concentration. Calibration standards were fit by linear regression with 1/x^2 weighting. QC samples (n = 3) were used at six concentration levels. Accepted calibration curve contained minimum 7 concentration levels within ± 20% of nominal (± 25% at the Lower Limit of Quantitation). Accepted QCs were within ± 20% of nominal. PK parameters were calculated using a non-compartmental analysis with Phoenix WinNonLin version 6.4 software.

RXFP1 = target: T1, RXFP1 (Rattus norvegicus, UniProt Q6R6I6); assay: Telemetry (heart rate) in conscious SD rats; format: in vivo; details: conscious telemetered SD rats, single iv relaxin 1, 3 and 10 µg/kg, n = 5/group
T1 construct: measured in conscious telemetered SD rats; tissue Charles River Laboratories; host or cells: whole animal, male Sprague Dawley rats (heart; renal vasculature)
T1 sequence (Q6R6I6 1-758): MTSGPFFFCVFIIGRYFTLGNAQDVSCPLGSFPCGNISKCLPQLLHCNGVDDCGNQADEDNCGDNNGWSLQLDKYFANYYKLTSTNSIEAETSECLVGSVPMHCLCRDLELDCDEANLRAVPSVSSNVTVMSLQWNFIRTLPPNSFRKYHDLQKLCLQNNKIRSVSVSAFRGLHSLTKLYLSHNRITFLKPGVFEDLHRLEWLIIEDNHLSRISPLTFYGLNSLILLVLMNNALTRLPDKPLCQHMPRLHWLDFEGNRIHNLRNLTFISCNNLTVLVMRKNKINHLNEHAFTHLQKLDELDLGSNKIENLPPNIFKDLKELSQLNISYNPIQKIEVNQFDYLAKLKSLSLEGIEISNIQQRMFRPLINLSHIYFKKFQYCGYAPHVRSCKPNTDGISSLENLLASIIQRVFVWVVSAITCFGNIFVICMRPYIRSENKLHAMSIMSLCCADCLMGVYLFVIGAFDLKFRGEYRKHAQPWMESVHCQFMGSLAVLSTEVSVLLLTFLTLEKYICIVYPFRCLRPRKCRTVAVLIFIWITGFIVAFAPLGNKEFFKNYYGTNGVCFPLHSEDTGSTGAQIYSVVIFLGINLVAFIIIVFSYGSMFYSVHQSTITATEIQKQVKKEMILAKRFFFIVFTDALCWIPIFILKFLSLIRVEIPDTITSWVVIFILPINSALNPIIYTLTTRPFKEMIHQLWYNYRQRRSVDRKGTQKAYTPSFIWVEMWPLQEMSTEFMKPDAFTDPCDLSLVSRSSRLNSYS

[2] = female, Göttingen, minipig, plasma, iv, IV 1 mg/kg, animal 1
[3] = female, Göttingen, minipig, plasma, iv, IV 1 mg/kg, animal 2
[4] = female, Göttingen, minipig, plasma, sc, SC 1 mg/kg, animal 3
[5] = female, Göttingen, minipig, plasma, sc, SC 1 mg/kg, animal 4

- CL ([1]; IV 1 mg/kg, plasma, animal 1): 0.130 mL/min/kg
- t1/2 ([1]; IV 1 mg/kg, plasma, animal 1): 7.06 h
- CL ([1]; IV 1 mg/kg, plasma, animal 2): 0.151 mL/min/kg
- t1/2 ([1]; IV 1 mg/kg, plasma, animal 2): 6.92 h
- AUCext ([1]; IV 1 mg/kg, plasma, animal 1): 0.462%
- AUCext ([1]; IV 1 mg/kg, plasma, animal 2): 0.479%
- F ([1]; SC 1 mg/kg vs IV 1 mg/kg, animal 3): 81%
- F ([1]; SC 1 mg/kg vs IV 1 mg/kg, animal 4): 56%
- AUCext ([1]; SC 1 mg/kg, plasma, animal 3): 3.16%
- AUCext ([1]; SC 1 mg/kg, plasma, animal 4): 1.83%
- AUC [1, 2]: 31.9 µM·h
- C0 [1, 2]: 9360 nM
- AUC [1, 3]: 27.1 µM·h
- C0 [1, 3]: 8570 nM
- Vd ([1]; female, Göttingen, minipig, plasma, iv, IV 1 mg/kg, plasma, animal 1): 0.0439 L/kg
- Vd ([1]; female, Göttingen, minipig, plasma, iv, IV 1 mg/kg, plasma, animal 2): 0.0497 L/kg
- AUC [1, 4]: 23.8 µM·h
- Cmax [1, 4]: 1420 nM
- AUC [1, 5]: 16.6 µM·h
- Cmax [1, 5]: 1450 nM
- Tmax [1, 4]: 6 h
- Tmax [1, 5]: 4 h
- clearance ([1]; female, Göttingen, minipig, plasma, minipigs, IV 1 mg/kg, n = 2): 0.14 mL/min/kg
- bioavailability ([1]; female, Göttingen, minipig, plasma, minipigs, SC 1 mg/kg vs IV 1 mg/kg, read-out: bioavailability (ratio of scAUC/ivAUC)): ~70%
- level at time molar at 12 h ([1]; female, Göttingen, minipig, plasma, minipigs, SC 1 mg/kg, read-out: plasma concentration after 12 h): ~1000 nM
- apparent terminal half-life ([1]; minipigs, IV 1 mg/kg, n = 2): 7 h
Compound: CCCCCCCCCCCCCCCCCC(=O)N[C@@H](CCC(=O)N[C@@H](CCC(=O)N[C@@H](CCC(=O)NCCOCCOCC(=O)NCCOCCOCC(=O)NCCOCCOCC(=O)NCCCC[C@H](NC(=O)[C@H](CCCCNC(C)=O)NC(=O)[C@H](CCCCN)NC(=O)[C@H](CCCNC(=N)N)NC(=O)C(C)(C)NC(=O)[C@H](CO)NC(=O)[C@H](Cc1c[nH]c2ccccc12)NC(=O)[C@@H](NC(=O)[C@H](CO)NC(=O)[C@H](CCCC)NC(=O)CNC(=O)[C@H](CCC(=O)O)NC(=O)C(C)(C)NC(=O)C(C)(C)NC(=O)[C@@H](NC(=O)[C@H](CCCCNC(C)=O)NC(=O)[C@H](C)NC(=O)[C@H](CCCNC(=N)N)NC(=O)[C@@H](NC(=O)[C@H](CCCCN)NC(=O)[C@H](CCC(=O)O)NC(=O)[C@H](CCCNC(=N)N)NC(=O)CNC(=O)[C@H](CCC(=O)O)NC(=O)[C@H](CC(C)C)NC(C)=O)C(C)C)[C@@H](C)CC)[C@@H](C)O)C(N)=O)C(=O)O)C(=O)O)C(=O)O [SA10SC-RLX] (Ac-LEGREKVRAK(Ac)I[Aib][Aib]EG[Nle]STWS[Aib]RKK(Ac)K([AEEA-AEEA-AEEA-γGlu-γGlu-γGlu-Stearoyl])-NH2)

Compound: relaxin
- duration of the heart rate effect (RXFP1): 4 to 6 h

— PMC9705314, “Characterization of a new potent and long-lasting single chain peptide agonist of RXFP1 in cells and in vivo translational models” (Scientific Reports, 2022)
